Measured values as given in PubChem BioAssay AID179 (DTP/NCI, 2004).
The source made the active and inactive calls.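 The calls were made as follows: active = compounds giving half or more protection of infected cells from virus-caused growth loss, again on retest; inactive = the rest.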 Where a SMILES comes first, the peptide text is derived from it.

System: CEM cells HIV-1 protection, formazan growth assay
Experiment: NCI AIDS Antiviral Assay
Settings: for IC50: measured here: growth of uninfected CEM cells
Outline: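 Category rules: moderately active means at least 50% protection on retest, and confirmed active means 100% protection reproducibly. The underlying data came from a formazan growth assay in HIV-1-infected CEM cells.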

SMILES | EC50 [µM] | IC50 [µM] | outcome
CSc1ccc(/C=C2/C[N+](C)(C)C/C(=C/c3ccc(SC)cc3)C2=O)cc1 | > 129 | 12.3 | –
COc1ccccc1NC(=S)N/N=C/c1c(C)n(C)n(-c2ccccc2)c1=O | > 200 | 64.6 | –
COc1cc2c(cc1OC)C(Cc1ccccc1CCCl)=NCC2 | > 200 | 29.5 | –
c1csc(-c2cc(-c3cccs3)c(-c3ccsc3)s2)c1 | > 200 | 33.1 | –
O=C(CCCC[n+]1ccccc1)Sc1ccccc1C(=O)Nc1ccc(S(=O)(=O)Nc2cnc3ccccc3n2)cc1 | 12.3 | 19.1 | –
CCC[CH2][Sn]([CH2]CCC)([O]c1cccc2cccnc12)[O]c1cccc2cccnc12 | – | – | inactive
c1ccc2sc(SSSSc3nc4ccccc4s3)nc2c1 | > 200 | 174 | –
O=C(CC(c1ccccc1)c1c(O)c2ccccc2oc1=O)c1ccccc1 (stereo unspecified) | > 200 | 83.2 | –
O=c1[nH]c(Nc2cc(Cl)cc(Cl)c2)nc2nc[nH]c12 | > 200 | > 200 | –
CC1(C)CC(=O)C(C(=O)C(=O)NC2=C(Cl)C(=O)c3ccccc3C2=O)C(=O)C1 | > 17.8 | – | –
Cc1cn(COCCSc2ccccc2)c(=O)[nH]c1=O | > 135 | 83.2 | –
COc1cc([N+](=O)[O-])c(OC)c2c(=O)[nH]c(=O)[nH]c12 | > 47.9 | > 47.9 | –
CC(=O)N/C(=C\c1ccc(/C=C(\NC(C)=O)c2nc3ccc(Cl)cc3[nH]2)cc1)c1nc2ccccc2[nH]1 | – | – | inactive
CC(=O)Nc1ccc(/C=C(\C#N)c2ccc(C)cc2)cc1 | > 200 | > 200 | –
CC(N)C(=O)NCC(=O)NC(CO)C(=O)NC(CCC(N)=O)C(=O)NC(CCC(=O)O)C(=O)N1CCCC1C(=O)NC(CCCCN)C(=O)NC(CCC(=O)O)C(=O)NC(CCC(N)=O)C(=O)NC(CO)C(=O)NC(CO)C(=O)NC(Cc1ccc(O)cc1)C(=O)NC(CO)C(=O)NC(Cc1cnc[nH]1)C(=O)NC(CO)C(=O)O (stereo unspecified) (H-AGSQEPKEQSSYSHS-OH; configuration not given here) | > 100 | > 100 | –
COc1ccc(NC(=O)c2c(NC(C)=O)c(C#N)c3n2CCC3)cc1 | > 200 | > 200 | –
CC(SC(=S)N1CCOCC1)c1cc2oc(=O)n(C)c2cc1Cl (stereo unspecified) | > 10 | > 10 | –
O=[N+]([O-])c1nccn1CCC[n+]1cccc2ccccc21 | > 200 | > 200 | –
NS(=O)(=O)c1ccc(Nc2c3ccccc3nc3c(C(=O)NCCO)cccc23)cc1 | > 200 | 5.25 | –
ClCC[N+]12CC[N+](CCCl)(CC1)C2 | – | – | inactive
Brc1csnn1 | > 200 | > 200 | –
Cc1cc2ccccc2n1CC(=O)N1CCCC1 | > 200 | > 200 | –
OCC1COc2cc(Cl)c(Cl)cc2O1 (stereo unspecified) | > 200 | 120 | –

SMILES | EC50 [µM] | IC50 [µM] | outcome
CCCC(=O)C(C)=C(OC)OC | – | – | inactive
N#CCCC1(CCC#N)CCCCCCC(CCC#N)(CCC#N)C(O)C1O (stereo unspecified) | > 200 | > 200 | –
CC(NC(=O)NC(C)(C)C)NC(=O)C(N)CC(=O)O (stereo unspecified) | > 200 | > 200 | –
C[Si](C)(c1ccccc1)C1CC(=O)CC(=O)C1 | > 380 | 245 | –
COc1ccc(C(=O)O)c2c(=O)c3ccccc3[nH]c12 | – | – | inactive
COc1ccc2c(c1)c1c(n2CCN(C)C)-c2cccc(OC)c2CC1 | > 200 | 11 | –
Cc1nn(-c2ccccc2)c(=O)n2c1nc1ccccc12 | > 93.3 | 58.9 | –
CNC(=O)n1ncc2ccc([N+](=O)[O-])cc21 | > 200 | 158 | –
CCCCCCCCCCCCCCCCCC(=O)OCC(CO)OC(=O)CCCCCCCCCCCCCCCCC (stereo unspecified) | – | – | inactive
COc1ccc(/C=C2/C(=O)N(C(=O)c3ccccc3O)N=C2C)cc1 | > 56.2 | 0.0501 | –
S=C1NCCNC(=S)SSC(=S)SS1 | > 2.34 | > 2.34 | –
CCOP(=O)(OCC)C(C(=O)OC)C(=O)C(=O)Nc1ccc(Cl)cc1Cl (stereo unspecified) | > 61.7 | > 61.7 | –
CC(C)N(C)C(=O)C12C3C4C1C1C2C3C41C#N (stereo unspecified) | – | – | inactive
O=C(O)C1(Cc2ccccc2)Cc2ccccc2C1 | > 200 | > 200 | –
CCOC(=O)Nc1cc(Nc2ccc(Cl)cc2)c2nc(-c3ccc(Cl)cc3)c(-c3ccc(Cl)cc3)nc2n1 | > 37.2 | > 37.2 | –
c1ccc(SC(CCCCOC2CCCCO2)Sc2ccccc2)cc1 (stereo unspecified) | – | – | inactive
c1ccc([P+](c2ccccc2)(c2ccccc2)C2c3ccccc3-c3ccccc32)cc1 | > 200 | 10.7 | –
Cc1cc(C)c2cnnn2n1 | > 1700 | > 1700 | –
COc1oc(C(=O)NC2CCCCC2)c(-c2ccc(Cl)cc2)c1S(=O)(=O)c1ccccc1 | > 200 | 9.77 | –
N#CC(C#N)=Cc1ccc(F)cc1 | > 79.4 | > 79.4 | –
CC(=O)O/C=C\OC1CCCC1(c1ccccc1)c1ccccc1 (stereo unspecified) | > 200 | 1.38 | –
O=[N+]([O-])c1ccccc1C1SCc2nc3ccccc3n21 (stereo unspecified) | > 38.9 | 33.9 | –
CC(=O)SCC1CC[C@]2(C)C3CC[C@]4(C)C(C(C)CCC(=O)O)CCC4[C@@H]3CC[C@@H]2C1 (stereo partly specified) | > 5.89 | > 5.89 | –

SMILES | EC50 [µM] | IC50 [µM] | outcome
O=C(CC(=O)Nc1ccccc1)NNC(Sc1ccccc1)c1cc(N=Nc2ccc(Br)cc2)ccc1O (stereo unspecified) | – | – | inactive
CC(C)=C1CCC(C)C/C1=N\NC(N)=S (stereo unspecified) | > 200 | 19.5 | –
COC(=O)/C(=N\NC(N)=S)C(C#N)c1ccccc1 (stereo unspecified) | > 129 | > 129 | –
O=C(c1cccs1)N(C(=O)N1CCC(c2ccccc2)CC1)c1ccccc1 | > 200 | > 200 | –
O=C(NC(=O)c1ccccc1[N+](=O)[O-])Nc1ccc(Oc2ncc(Cl)cn2)c([N+](=O)[O-])c1 | – | – | inactive
CCOC(=O)/C=C\n1c(=O)cc(C)c2ccccc21 | > 200 | > 200 | –
Cc1ccc(NC(=O)c2ccccc2)c(=O)o1 | > 200 | > 200 | –
COc1ccccc1C(=O)N(C)c1ccc(Cl)c(C(=O)OC(C)C)c1 | – | – | inactive
O=C1c2ccccc2CCC1(Br)C(Br)c1ccccc1 (stereo unspecified) | > 200 | 5.37 | –
Nc1nc(=O)n(C2OC(CO)C(O)C2Cl)cc1I (stereo unspecified) | > 200 | 1.17 | –
CCOC(=O)C1C2CCC1CC(=NNc1ccc([N+](=O)[O-])cc1[N+](=O)[O-])C2 (stereo unspecified) | > 50.1 | 19.5 | –
Nc1nc2c(ccn2[C@H]2C=C[C@@H](CO)C2)c(=O)[nH]1 | > 275 | > 275 | –
Cc1cc(Cl)c(O)c(-c2cc(-c3cccc([N+](=O)[O-])c3)c3c(N)[nH]c(=S)nc3n2)c1 | > 200 | 3.89 | –
Cc1ccc(S(=O)(=O)N/N=C2/C3CCC(C3)C2c2ccccc2)cc1 (stereo unspecified) | > 200 | > 200 | –
COC(=O)C12CC(C3CC31)C1CC12 (stereo unspecified) | > 251 | > 251 | –
[Se]=P(c1ccccc1)(c1ccccc1)c1ccc(C(c2ccccc2)=P(c2ccccc2)(c2ccccc2)c2ccccc2)cc1 | > 10 | 1 | –
CCOC(=O)NC(=O)c1cn(CCN2CCN(C(=O)CCCCCCCCCCNc3ncnc4nc[nH]c34)CC2)c(=O)[nH]c1=O | – | – | inactive
COc1cc2c(cc1OC)[C@H](C)N1CCc3cc(OC)c(OC)cc3[C@@H]1C2 | > 200 | > 200 | –
CC(C)(C)OC(=O)NC1CCCC1C(=O)C1=CCCC1 (stereo unspecified) | > 200 | 105 | –
C=CCN(Cc1ccncc1)C(=O)C(O)(c1ccccc1)c1ccccc1 | > 200 | 186 | –
Cn1c2ccccc2n2c3ncccc3c(=NCCCC(=O)O)c(C#N)c12 | > 200 | > 200 | –
O=C(O/N=C1/CCC/C1=C\c1ccccc1)c1ccccc1 | – | – | inactive
COc1cc(CCCOC(=O)/C=C/c2ccc(O)c(O)c2)cc(O)c1O | > 200 | > 200 | –

SMILES | EC50 [µM] | IC50 [µM] | outcome
Cc1cccc(N=C2NC(=O)C(CC(=O)Nc3ccccc3Cl)S2)c1 (stereo unspecified) | > 10 | > 10 | –
O=C(Nc1nc(=S)[nH][nH]1)C(=O)C(C(=O)c1ccc2ccccc2c1)C1OC(=O)c2ccccc21 (stereo unspecified) | > 55 | 25.7 | –
NCCNC(=O)CN(CC(=O)O)C1CCCCC1N(CC(=O)O)CC(=O)O (stereo unspecified) | > 200 | > 200 | –
CCC1(OC(=O)CNC)C(=O)OCc2c1cc1n(c2=O)Cc2cc3ccccc3nc2-1 (stereo unspecified) | > 10 | 0.00977 | –
CCC1(C)C=Cc2c(cc(OC)c3c(=O)c4ccccc4n(C)c23)O1 (stereo unspecified) | > 200 | 24.5 | –
CC(=O)NNC=N/C(C#N)=C(\N)C#N | > 200 | > 200 | –
O=C1c2cccnc2S(=O)(=O)N1c1ccc(Br)cc1 | > 200 | 74.1 | –
C=C[C@H]1[C@@H]2CCC3=CC(=O)CC[C@@H]3C2CC[C@]1(C)C(=O)O (stereo partly specified) | > 200 | > 200 | –
COc1ccc(/C=C/C(=O)O)cc1OC | > 1200 | > 1200 | –
CC1(C)OCC(C2OC(OC(=O)c3ccc(C(F)(F)F)cc3)C3OC(C)(C)OC23)O1 (stereo unspecified) | – | – | inactive
O=c1[nH]c(=S)[nH]c2c1sc(=S)n2-c1ccccc1 | > 89.1 | > 89.1 | –
Cc1ccc(C)n1CCN1CCNCC1 | > 200 | 162 | –
N#Cc1ccc(Oc2cccc(Oc3ccccc3)c2)cc1C#N | > 43.7 | > 43.7 | –
CC(C)(C)[Si](C)(C)OCC1=C(CC#N)C(O[Si](C)(C)C(C)(C)C)C(n2ccc(=O)[nH]c2=O)O1 (stereo unspecified) | > 200 | 9.33 | –
Nc1ncnc2c1ncn2-c1ccc([N+](=O)[O-])cn1 | – | – | inactive
COc1ccc(-c2nc3c(=O)n(C)c(=O)n(C)c3nc2-c2ccc(OC)cc2)cc1 | > 200 | 195 | –
Cc1ccnc(NS(=O)(=O)c2ccc(NC(=O)Nc3ccc(Cl)c(C(F)(F)F)c3)cc2)n1 | – | – | inactive
COc1cc(C2C(Cl)C(=O)N2NC(=O)c2ccccc2O)cc(OC)c1OC (stereo unspecified) | > 45.7 | 3.98 | –
C[N+]12CC3C4CC(C3C1)C2C4 (stereo unspecified) | > 912 | > 912 | –
O=C(Cn1c(=O)ccc2ccccc21)Cn1c(=O)ccc2ccccc21 | > 200 | > 200 | –
